# From patent publication US6984649B1, “Pyridine derivatives” (Bayer Aktiengesellschaft, priority 2000, dated 2006)
# Tested on: A549 human lung epithelium cell line
# Assay: RANTES production in response to TNF-α from A549 cells
# Format: cell-based
# Settings: Homo sapiens, A549, A549 cells, 100 ng/ml TNF-α, read-out: Cellular activity grade (A549) (Cellular IC50)
# Method in brief: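 Cells (4×10^4/well) in D-MEM/10% FCS preincubated 1 h at 37 °C with compound in 1% DMSO, then stimulated with 100 ng/ml TNF-α for 24 h. Supernatant RANTES quantified by Eu-labelled sandwich immunoassay (time-resolved fluorescence, ex 340/em 615 nm) against recombinant human RANTES standard.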
row,Compound,IC50
1,N#Cc1c(C2CCNCC2)cc(-c2ccccc2O)nc1N [Example 1-13],< 1000 nM
2,N#Cc1c(C2CCCCN2)cc(-c2ccccc2O)nc1N (stereo not shown) [Example 1-14],1000 to 10000 nM
3,N#Cc1c(C2CNCCN2)cc(-c2ccccc2O)nc1N (stereo not shown) [Example 1-15],1000 to 10000 nM
4,Cc1cccc(-c2cc(C3CCCNC3)c(C#N)c(N)n2)c1O (stereo not shown) [Example 1-17],1000 to 10000 nM
5,N#Cc1c(C2CCCNC2)cc(-c2ccc(O)cc2O)nc1N (stereo not shown) [Example 1-18],1000 to 10000 nM
6,N#Cc1c(C2CCCNC2)cc(-c2cccc(F)c2O)nc1N (stereo not shown) [Example 1-19],< 1000 nM
7,N#Cc1c(C2CCCNC2)cc(-c2cccc(Cl)c2O)nc1N (stereo not shown) [Example 1-20],< 1000 nM
8,Cc1cccc(O)c1-c1cc(C2CCCNC2)c(C#N)c(N)n1 (stereo not shown) [Example 1-21],1000 to 10000 nM
9,N#Cc1c(C2CCC(N)CC2)cc(-c2ccccc2O)nc1N (stereo not shown) [Example 1-22],< 1000 nM
10,N#Cc1c(C2CCCC(N)C2)cc(-c2ccccc2O)nc1N (stereo not shown) [Example 1-23],< 1000 nM
11,N#Cc1c([C@@H](N)Cc2ccccc2)cc(-c2ccccc2O)nc1N [Example 1-25],1000 to 10000 nM
12,COc1ccc(C[C@H](N)c2cc(-c3ccccc3O)nc(N)c2C#N)cc1 [Example 1-26],1000 to 10000 nM
13,CCCC[C@H](N)c1cc(-c2ccccc2O)nc(N)c1C#N [Example 1-28],> 10000 nM
14,N#Cc1c([C@@H](N)CCc2ccccc2)cc(-c2ccccc2O)nc1N [Example 1-29],> 10000 nM
15,N#Cc1c([C@@H](N)Cc2ccc(F)cc2)cc(-c2ccccc2O)nc1N [Example 1-30],1000 to 10000 nM
16,N#Cc1c([C@@H]2CCCN2)cc(-c2ccccc2O)nc1N [Example 1-31],1000 to 10000 nM
17,C[C@H](N)c1cc(-c2ccccc2O)nc(N)c1C#N [Example 1-32],1000 to 10000 nM
18,CC(C)[C@H](N)c1cc(-c2ccccc2O)nc(N)c1C#N [Example 1-33],1000 to 10000 nM

row,Compound,IC50
1,N#Cc1c([C@H](N)Cc2ccccc2)cc(-c2ccccc2O)nc1N [Example 1-34],1000 to 10000 nM
2,N#Cc1c(CC(N)c2ccccc2)cc(-c2ccccc2O)nc1N (stereo not shown) [Example 1-35],1000 to 10000 nM
3,N#Cc1c(CCN)cc(-c2ccccc2O)nc1N [Example 1-37],< 1000 nM
4,N#Cc1c(C2CCC(C(=O)O)CC2)cc(-c2ccccc2O)nc1N (stereo not shown) [Example 1-38],1000 to 10000 nM
5,CCc1cc(-c2ccccc2O)nc(N)c1C#N [Example 1-39],> 10000 nM
6,N#Cc1c([C@H](Cc2ccccc2)NC(=O)CCN2CCCCC2)cc(-c2ccccc2O)nc1N [Example 1-40],1000 to 10000 nM
7,N#Cc1c(C2CCCN(C(=O)CCN3CCCCC3)C2)cc(-c2ccccc2O)nc1N (stereo not shown) [Example 1-41],1000 to 10000 nM
8,CS(=O)(=O)N1CCCC(c2cc(-c3ccccc3O)nc(N)c2C#N)C1 (stereo not shown) [Example 1-42],1000 to 10000 nM
9,CCCN(CCC)C1CCCC(c2cc(-c3ccccc3O)nc(N)c2C#N)C1 (stereo not shown) [Example 1-43],< 1000 nM
10,N#Cc1c(CCO)cc(-c2ccccc2O)nc1N [Example 1-44],1000 to 10000 nM
11,Cc1cccc(COc2cccc(O)c2-c2cc(C3CCCNC3)c(C#N)c(N)n2)c1 (stereo not shown) [Example 2-07],1000 to 10000 nM
12,Cc1ccc(COc2cccc(O)c2-c2cc(C3CCCNC3)c(C#N)c(N)n2)cc1 (stereo not shown) [Example 2-08],< 1000 nM
13,N#Cc1c(C2CCCNC2)cc(-c2c(O)cccc2OCc2cccc(C(F)(F)F)c2)nc1N (stereo not shown) [Example 2-09],1000 to 10000 nM
14,N#Cc1c(C2CCCNC2)cc(-c2c(O)cccc2OCc2ccc(C(F)(F)F)cc2)nc1N (stereo not shown) [Example 2-10],1000 to 10000 nM
15,N#Cc1c(C2CCCNC2)cc(-c2c(O)cccc2OCc2cccc(Br)c2)nc1N (stereo not shown) [Example 2-11],1000 to 10000 nM
16,N#Cc1c(C2CCCNC2)cc(-c2c(O)cccc2OCc2ccccc2[N+](=O)[O-])nc1N (stereo not shown) [Example 2-12],1000 to 10000 nM
17,N#Cc1c(C2CCCNC2)cc(-c2c(O)cccc2OCc2cccc([N+](=O)[O-])c2)nc1N (stereo not shown) [Example 2-13],1000 to 10000 nM
18,N#Cc1c(C2CCCNC2)cc(-c2c(O)cccc2OCc2ccc([N+](=O)[O-])cc2)nc1N (stereo not shown) [Example 2-14],< 1000 nM

# Same assay, conditions: Homo sapiens, A549 cells, 100 ng/ml TNF-α, read-out: Cellular activity grade (A549) (Cellular IC50)
row,Compound,IC50
1,CC(N)Cc1cc(-c2ccccc2O)nc(N)c1C#N (stereo not shown) [Example 1-36],1000 to 10000 nM
